Molecular target: T1, human PAH with the R408W mutation (Homo sapiens, UniProt P00439, R408W)
T1 construct: expressed in transfected cells
T1 sequence (P00439 1-452 R408W): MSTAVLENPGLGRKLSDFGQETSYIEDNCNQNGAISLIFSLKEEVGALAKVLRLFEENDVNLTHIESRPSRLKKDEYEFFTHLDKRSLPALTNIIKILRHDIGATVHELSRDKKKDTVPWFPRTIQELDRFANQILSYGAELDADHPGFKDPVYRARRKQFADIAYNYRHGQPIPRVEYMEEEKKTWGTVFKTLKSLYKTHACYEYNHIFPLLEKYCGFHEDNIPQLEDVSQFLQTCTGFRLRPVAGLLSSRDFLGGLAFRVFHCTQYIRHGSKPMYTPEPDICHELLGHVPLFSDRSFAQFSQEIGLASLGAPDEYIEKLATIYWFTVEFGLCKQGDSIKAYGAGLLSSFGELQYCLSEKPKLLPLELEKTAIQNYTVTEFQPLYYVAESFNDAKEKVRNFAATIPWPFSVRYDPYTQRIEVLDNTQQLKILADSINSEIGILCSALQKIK
Test: Cell Based Phenylalanine Flux Assay
Conditions: A375 cells expressing human R408W PAH; 24 hrs compound incubation; 13C-Tyrosine by LC-MS; average where tested multiple times; read-out: AC50

| AC50 [µM] | Compound |
| --- | --- |
| < 0.5 | O=C(CC1CC1)N1CCc2[nH]cnc2[C@H]1c1nc2ccc(Br)cc2s1 [Example 1148, (S)-1-(4-(6-bromobenzo[d]thiazol-2-yl)-6,7-dihydro-1H-imidazo[4,5-c]pyridin-5(4H)-yl)-2-cyclopropylethanone] |
| < 0.5 | O=C(c1cnn2c(Br)cccc12)N1CCc2[nH]cnc2[C@H]1c1nc2ccc(F)cc2s1 [Example 1149] |
| > 5 | O=C(c1cnn2c(Br)cccc12)N1CCc2[nH]cnc2[C@@H]1c1nc2ccc(F)cc2s1 [Example 1150, (R)-(7-bromopyrazolo[1,5-a]pyridin-3-yl)(4-(6-fluorobenzo[d]thiazol-2-yl)-6,7-dihydro-1H-imidazo[4,5-c]pyridin-5(4H)-yl)methanone] |
| < 0.5 | O=C(c1cnn2ccc(Cl)cc12)N1CCc2[nH]cnc2[C@H]1c1nc2ccc(F)cc2s1 [Example 1151] |
| > 5 | O=C(c1cnn2ccc(Cl)cc12)N1CCc2[nH]cnc2[C@@H]1c1nc2ccc(F)cc2s1 [Example 1152, (R)-(5-chloropyrazolo[1,5-a]pyridin-3-yl)(4-(6-fluorobenzo[d]thiazol-2-yl)-6,7-dihydro-1H-imidazo[4,5-c]pyridin-5(4H)-yl)methanone] |
| < 0.5 | O=C(C1CCC1)N1CCc2[nH]cnc2[C@H]1c1nc2ccccc2s1 [Example 1153] |
| > 5 | O=C(C1CCC1)N1CCc2[nH]cnc2[C@@H]1c1nc2ccccc2s1 [Example 1154, (R)-(4-(benzo[d]thiazol-2-yl)-6,7-dihydro-1H-imidazo[4,5-c]pyridin-5(4H)-yl)(cyclobutyl)methanone] |
| 0.5 to 1 | N#Cc1ccn2ncc(C(=O)N3CCc4[nH]cnc4[C@H]3c3nc4ccc(F)cc4s3)c2c1 [Example 1155, (S)-3-(4-(6-fluorobenzo[d]thiazol-2-yl)-4,5,6,7-tetrahydro-1H-imidazo[4,5-c]pyridine-5-carbonyl)pyrazolo[1,5-a]pyridine-5-carbonitrile] |
| > 5 | N#Cc1ccn2ncc(C(=O)N3CCc4[nH]cnc4[C@@H]3c3nc4ccc(F)cc4s3)c2c1 [Example 1156, (R)-3-(4-(6-fluorobenzo[d]thiazol-2-yl)-4,5,6,7-tetrahydro-1H-imidazo[4,5-c]pyridine-5-carbonyl)pyrazolo[1,5-a]pyridine-5-carbonitrile] |
| > 5 | O=C(c1ncn2ccccc12)N1CCc2[nH]cnc2[C@@H]1c1nc2cc(F)ccc2s1 [Example 1158, (R)-(4-(5-fluorobenzo[d]thiazol-2-yl)-6,7-dihydro-1H-imidazo[4,5-c]pyridin-5(4H)-yl)(imidazo[1,5-a]pyridin-1-yl)methanone] |
| > 5 | N#Cc1ccn2ncc(C(=O)N3CCc4[nH]cnc4[C@@H]3c3nc4cc(F)ccc4s3)c2c1 [Example 1159, (R)-3-(4-(5-fluorobenzo[d]thiazol-2-yl)-4,5,6,7-tetrahydro-1H-imidazo[4,5-c]pyridine-5-carbonyl)pyrazolo[1,5-a]pyridine-5-carbonitrile] |
| 0.5 to 1 | N#Cc1ccn2ncc(C(=O)N3CCc4[nH]cnc4[C@H]3c3nc4cc(F)ccc4s3)c2c1 [Example 1160, (S)-3-(4-(5-fluorobenzo[d]thiazol-2-yl)-4,5,6,7-tetrahydro-1H-imidazo[4,5-c]pyridine-5-carbonyl)pyrazolo[1,5-a]pyridine-5-carbonitrile] |

Continued, molecule first:

| Compound | AC50 [µM] |
| --- | --- |
| O=C(c1ccno1)N1CCc2[nH]cnc2[C@H]1c1nc2ccccc2s1 [Example 1123] | 0.5 to 1 |
| O=C(c1ccno1)N1CCc2[nH]cnc2[C@@H]1c1nc2ccccc2s1 [Example 1124, (R)-(4-(benzo[d]thiazol-2-yl)-6,7-dihydro-1H-imidazo[4,5-c]pyridin-5(4H)-yl)(isoxazol-5-yl)methanone] | > 5 |
| Cc1ccn2ncc(C(=O)N3CCc4[nH]cnc4[C@H]3c3nc4ccccc4s3)c2c1 [Example 1125] | 1 to 5 |
| Cc1ccn2ncc(C(=O)N3CCc4[nH]cnc4[C@@H]3c3nc4ccccc4s3)c2c1 [Example 1126, (R)-(4-(benzo[d]thiazol-2-yl)-6,7-dihydro-1H-imidazo[4,5-c]pyridin-5(4H)-yl)(5-methylpyrazolo[1,5-a]pyridin-3-yl)methanone] | 1 to 5 |
| O=C(c1cc2cccnn2c1)N1CCc2[nH]cnc2[C@H]1c1nc2ccccc2s1 [Example 1127] | 0.5 to 1 |
| O=C(c1cc2cccnn2c1)N1CCc2[nH]cnc2[C@@H]1c1nc2ccccc2s1 [Example 1128, (R)-(4-(benzo[d]thiazol-2-yl)-6,7-dihydro-1H-imidazo[4,5-c]pyridin-5(4H)-yl)(pyrrolo[1,2-b]pyridazin-6-yl)methanone] | > 5 |
| O=C(c1nc2ccccc2o1)N1CCc2[nH]cnc2[C@H]1c1nc2ccccc2s1 [Example 1129, (S)-benzo[d]oxazol-2-yl(4-(benzo[d]thiazol-2-yl)-1,4,6,7-tetrahydro-5H-imidazo[4,5-c]pyridin-5-yl)methanone] | < 0.5 |
| O=C(c1nc2ccccc2o1)N1CCc2[nH]cnc2[C@@H]1c1nc2ccccc2s1 [Example 1130, (R)-benzo[d]oxazol-2-yl(4-(benzo[d]thiazol-2-yl)-1,4,6,7-tetrahydro-5H-imidazo[4,5-c]pyridin-5-yl)methanone] | 1 to 5 |
| O=C(c1nc2ccccc2[nH]1)N1CCc2[nH]cnc2[C@H]1c1nc2ccccc2s1 [Example 1131] | 0.5 to 1 |
| O=C(c1nc2ccccc2[nH]1)N1CCc2[nH]cnc2[C@@H]1c1nc2ccccc2s1 [Example 1132, (R)-(1H-benzo[d]imidazol-2-yl)(4-(benzo[d]thiazol-2-yl)-6,7-dihydro-1H-imidazo[4,5-c]pyridin-5(4H)-yl)methanone] | 1 to 5 |
| O=C(CCC1CC1)N1CCc2[nH]cnc2[C@H]1c1nc2cccc(F)c2s1 [Example 1133, (S)-3-cyclopropyl-1-(4-(7-fluorobenzo[d]thiazol-2-yl)-6,7-dihydro-1H-imidazo[4,5-c]pyridin-5(4H)-yl)propan-1-one] | 0.5 to 1 |
| O=C(CCC1CC1)N1CCc2[nH]cnc2[C@@H]1c1nc2cccc(F)c2s1 [Example 1134, (R)-3-cyclopropyl-1-(4-(7-fluorobenzo[d]thiazol-2-yl)-6,7-dihydro-1H-imidazo[4,5-c]pyridin-5(4H)-yl)propan-1-one] | 1 to 5 |
| O=C(CC1CC1)N1CCc2[nH]cnc2[C@H]1c1nc2cc(F)ccc2s1 [Example 1135, (S)-2-cyclopropyl-1-(4-(5-fluorobenzo[d]thiazol-2-yl)-6,7-dihydro-1H-imidazo[4,5-c]pyridin-5(4H)-yl)ethanone] | 0.5 to 1 |
| O=C(CC1CC1)N1CCc2[nH]cnc2[C@@H]1c1nc2cc(F)ccc2s1 [Example 1136, (R)-2-cyclopropyl-1-(4-(5-fluorobenzo[d]thiazol-2-yl)-6,7-dihydro-1H-imidazo[4,5-c]pyridin-5(4H)-yl)ethanone] | 1 to 5 |
| O=C(c1cnn2ccc(Br)cc12)N1CCc2[nH]cnc2[C@H]1c1nc2ccc(F)cc2s1 [Example 1137] | 0.5 to 1 |
| O=C(c1cnn2ccc(Br)cc12)N1CCc2[nH]cnc2[C@@H]1c1nc2ccc(F)cc2s1 [Example 1138, (R)-(5-bromopyrazolo[1,5-a]pyridin-3-yl)(4-(6-fluorobenzo[d]thiazol-2-yl)-6,7-dihydro-1H-imidazo[4,5-c]pyridin-5(4H)-yl)methanone] | 1 to 5 |
| c1ccc2sc([C@@H]3c4nc[nH]c4CCN3Cc3nccs3)nc2c1 [Example 1139, (S)-2-(5-(thiazol-2-ylmethyl)-4,5,6,7-tetrahydro-1H-imidazo[4,5-c]pyridin-4-yl)benzo[d]thiazole] | 0.5 to 1 |
| c1ccc2sc([C@H]3c4nc[nH]c4CCN3Cc3nccs3)nc2c1 [Example 1140, (R)-2-(5-(thiazol-2-ylmethyl)-4,5,6,7-tetrahydro-1H-imidazo[4,5-c]pyridin-4-yl)benzo[d]thiazole] | 1 to 5 |
| O=C(c1scnc1Cl)N1CCc2[nH]cnc2[C@@H]1c1nc2ccc(F)cc2s1 [Example 1141] | > 5 |
| O=C(c1nc(Cl)cs1)N1CCc2[nH]cnc2[C@H]1c1nc2ccc(F)cc2s1 [Example 1142] | 0.5 to 1 |
| O=C(c1ncn2ccccc12)N1CCc2[nH]cnc2[C@H]1c1nc2c(F)cccc2s1 [Example 1143, (S)-(4-(4-fluorobenzo[d]thiazol-2-yl)-6,7-dihydro-1H-imidazo[4,5-c]pyridin-5(4H)-yl)(imidazo[1,5-a]pyridin-1-yl)methanone] | 0.5 to 1 |
| O=C(c1ncn2ccccc12)N1CCc2[nH]cnc2[C@@H]1c1nc2c(F)cccc2s1 [Example 1144, (R)-(4-(4-fluorobenzo[d]thiazol-2-yl)-6,7-dihydro-1H-imidazo[4,5-c]pyridin-5(4H)-yl)(imidazo[1,5-a]pyridin-1-yl)methanone] | > 5 |
| O=C(CCC1CC1)N1CCc2[nH]cnc2[C@H]1c1nc2ccc(Br)cc2s1 [Example 1145, (S)-1-(4-(6-bromobenzo[d]thiazol-2-yl)-6,7-dihydro-1H-imidazo[4,5-c]pyridin-5(4H)-yl)-3-cyclopropylpropan-1-one] | < 0.5 |
| O=C(CCC1CC1)N1CCc2[nH]cnc2[C@@H]1c1nc2ccc(Br)cc2s1 [Example 1146, (R)-1-(4-(6-bromobenzo[d]thiazol-2-yl)-6,7-dihydro-1H-imidazo[4,5-c]pyridin-5(4H)-yl)-3-cyclopropylpropan-1-one] | 0.5 to 1 |
| O=C(CC1CC1)N1CCc2[nH]cnc2[C@@H]1c1nc2ccc(Br)cc2s1 [Example 1147, (R)-1-(4-(6-bromobenzo[d]thiazol-2-yl)-6,7-dihydro-1H-imidazo[4,5-c]pyridin-5(4H)-yl)-2-cyclopropylethanone] | 0.5 to 1 |
